One test concerns the target T1, BRD4 (BDI_K57-E168) (Homo sapiens, UniProt O60885).
T1 construct: BD1: amino acids K57-E168; made in house
The test can be described thus: TR-FRET bromodomain binding assay, first bromodomain of BRD4. Conditions: 100 nM probe. The gist of the method: (§1)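 Ki values derive from IC50s using probe Kd and concentration, with IC50s fitted to normalized TR-FRET ratios (Ex 340/Em 495, 520). Compounds competed against an Alexa647-labelled BET-inhibitor (100 nM BDI, 30 nM BDII) for 8 nM His-tagged bromodomain bound by Eu-anti-His antibody, 1 h, room temperature, pH 6.0.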

Test [1] concerns breast cancer cell line MX-1. Put plainly: MX-1 cell line proliferation assay. It counts as cell-based. The settings on record: MX-1 cells, 3-day proliferation assay, Cell Titer Glo; read-out: Cellular proliferation: EC50. A digest of the protocol:
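EC50 comes from sigmoidal fits of Cell Titer Glo luminescence relative to DMSO controls, with assay MSR 2.1. Ten-point 3-fold dilutions (top 3 or 1 μM final) were added to MX-1 breast cancer cells after overnight adhesion. Cells were at 5000/well and proliferation ran 3 days.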
For orientation: ATP-based viability assays read luminescence as a measure of living cells.

A further test concerns the target T2, BRD4 (BDII_E352-M457) (Homo sapiens, UniProt O60885).
T2 construct: protocol; made in house
Put plainly: TR-FRET bromodomain binding assay, second bromodomain of BRD4. The settings on record: 30 nM probe. The gist of the method:
as §1

Where [2] appears, read: TR-FRET assay protocol G (compound 0.92 μM-15 pM).
[3] abbreviates: TR-FRET assay protocol E (compound 9.19 μM-150 pM).

Here are results for 22 compounds from patent US10035800B2 (AbbVie Inc., priority 2013, dated 2018).

For orientation: Ki means the equilibrium dissociation constant of an inhibitor or competing ligand from its target. For the compound `Cn1cc2c3c(c[nH]c3c1=O)CN(Cc1ccccc1OCc1ccccn1)c1ccc(CS(C)(=O)=O)cc1-2` [Example 264, 10-methyl-7-((methylsulfonyl)methyl)-4-(2-(pyridin-2-ylmethoxy)benzyl)-3,4-dihydro-1H-1,4,10-triazadibenzo[cd,f]azulen-11(10H)-one], the Ki was 6.97 nM on BRD4 (BDI_K57-E168) (setting [2]) and 1.53 nM at BRD4 (BDII_E352-M457) (setting [2]). The EC50 in test [1] worked out at 899 nM.

`Cn1cc2c3c(c[nH]c3c1=O)CN(c1ccc(F)cc1)c1ncc(N)cc1-2` [Example 21, 7-amino-4-(4-fluorophenyl)-10-methyl-3,4-dihydro-1H-1,4,5,10-tetraazadibenzo[cd,f]azulen-11(10H)-one]: the Ki was 4.43 nM at BRD4 (BDI_K57-E168) (setting [2]) and 3 nM on BRD4 (BDII_E352-M457) (setting [2]). Moreover, in test [1], the EC50 was 1.05 nM.

As for `Cn1cc2c3c(c[nH]c3c1=O)C(CCC(=O)NCc1ccccc1)N(c1ccc(F)cc1F)c1ccc(CS(C)(=O)=O)cc1-2` (stereo not drawn) [Example 123, N-benzyl-3-(4-(2,4-difluorophenyl)-10-methyl-7-((methylsulfonyl)methyl)-11-oxo-3,4,10,11-tetrahydro-1H-1,4,10-triazadibenzo[cd,f]azulen-3-yl)propanamide], the Ki came to 9.95 nM on BRD4 (BDI_K57-E168) (setting [2]) and 0.983 nM on BRD4 (BDII_E352-M457) (setting [2]). Besides, in test [1], the EC50 is greater than 1000 nM.

Take `Cn1cc2c3c(c[nH]c3c1=O)CN(CCc1ccccc1)c1c(F)cc(F)cc1-2` [Example 55, 5,7-difluoro-10-methyl-4-phenethyl-3,4-dihydro-1H-1,4,10-triazadibenzo[cd,f]azulen-11(10H)-one]: the Ki at BRD4 (BDI_K57-E168) (setting [2]) is 8.96 nM; at BRD4 (BDII_E352-M457) (setting [2]), 15.9 nM. Further, the EC50 in test [1] came out at 146 nM.

For `CCOC(=O)C1c2c[nH]c3c(=O)n(C)cc(c23)-c2cc(CS(C)(=O)=O)ccc2N1c1ccc(F)cc1` (racemic) [Example 34, ethyl 4-(4-fluorophenyl)-10-methyl-7-((methylsulfonyl)methyl)-11-oxo-3,4,10,11-tetrahydro-1H-1,4,10-triazadibenzo[cd,f]azulene-3-carboxylate], the Ki at BRD4 (BDI_K57-E168) (setting [2]) was 2.45 nM; on BRD4 (BDII_E352-M457) (setting [2]), 3.89 nM. Moreover, the EC50 in test [1] stood at 14.7 nM.

On to “10-methyl-4-(pyridin-2-yl)-7-(pyrrolidin-1-ylsulfonyl)-3,4-dihydro-1H-1,4,5,10-tetraazadibenzo[cd,f]azulen-11(10H)-one [Example 266]”, for which the Ki at BRD4 (BDI_K57-E168) (setting [2]) is 17.8 nM; at BRD4 (BDII_E352-M457) (setting [2]), 8.15 nM. Also, in test [1], the EC50 turned out to be 42.7 nM.

Consider `Cn1cc2c3c(c[nH]c3c1=O)C(Cn1ccccc1=O)N(c1ccc(F)cc1F)c1ccc(CS(C)(=O)=O)cc1-2` (stereo not drawn) [Example 238, 4-(2,4-difluorophenyl)-10-methyl-7-((methylsulfonyl)methyl)-3-((2-oxopyridin-1(2H)-yl)methyl)-3,4-dihydro-1H-1,4,10-triazadibenzo[cd,f]azulen-11(10H)-one], for which the Ki at BRD4 (BDI_K57-E168) (setting [2]) was 62.1 nM; at BRD4 (BDII_E352-M457) (setting [2]) it was 4.6 nM. Moreover, the EC50 in test [1] came to 275 nM.

As for `Cn1cc2c3c(c(C(=O)O)[nH]c3c1=O)CN(c1ccc(F)cc1F)c1ccc(CS(C)(=O)=O)cc1-2` [Example 263, 4-(2,4-difluorophenyl)-10-methyl-7-((methylsulfonyl)methyl)-11-oxo-3,4,10,11-tetrahydro-1H-1,4,10-triazadibenzo[cd,f]azulene-2-carboxylic acid], the inhibitory constant (Ki) worked out at 7.04 nM at BRD4 (BDI_K57-E168) (setting [2]) and 8.07 nM on BRD4 (BDII_E352-M457) (setting [2]). Moreover, the EC50 in test [1] is greater than 1000 nM.

On to `CCCN1Cc2c[nH]c3c(=O)n(C)cc(c23)-c2cc(F)cc(F)c21` [Example 48, 5,7-difluoro-10-methyl-4-propyl-3,4-dihydro-1H-1,4,10-triazadibenzo[cd,f]azulen-11(10H)-one], for which the Ki on BRD4 (BDI_K57-E168) (setting [2]) was determined as 1.12 nM; at BRD4 (BDII_E352-M457) (setting [2]) it was 0.855 nM. Moreover, the EC50 in test [1] was found to be 4.41 nM.

Take “4-(6-methoxypyridin-2-yl)-10-methyl-7-((methylsulfonyl)methyl)-3,4-dihydro-1H-1,4,10-triazadibenzo[cd,f]azulen-11(10H)-one [Example 256]”: the figures for the Ki at BRD4 (BDI_K57-E168) (setting [2]) and at BRD4 (BDII_E352-M457) (setting [2]) were 0.59 nM and 0.54 nM, respectively. Further, in test [1], the EC50 amounted to 0.35 nM.

For `CN1CCN(Cc2[nH]c3c(=O)n(C)cc4c3c2CN(c2ccc(Cl)cc2)c2ccccc2-4)CC1` [Example 146, 4-(4-chlorophenyl)-10-methyl-2-((4-methylpiperazin-1-yl)methyl)-3,4-dihydro-1H-1,4,10-triazadibenzo[cd,f]azulen-11(10H)-one], the Ki on BRD4 (BDI_K57-E168) (setting [2]) amounted to 1.42 nM; on BRD4 (BDII_E352-M457) (setting [2]), 17 nM. Also, the EC50 in test [1] is 124 nM.

On to `Cn1cc2c3c(c[nH]c3c1=O)CN(c1ccc(F)cc1)c1ccc(CC#N)cc1-2` [Example 177, 2-(4-(4-fluorophenyl)-10-methyl-11-oxo-3,4,10,11-tetrahydro-1H-1,4,10-triazadibenzo[cd,f]azulen-7-yl)acetonitrile], for which the inhibitory constant (Ki) on BRD4 (BDI_K57-E168) (setting [2]) was determined as 2.02 nM; at BRD4 (BDII_E352-M457) (setting [2]), 1.27 nM. For the same compound, the EC50 in test [1] is 3.72 nM.

As for `CC(=O)OCC(CCC1c2c[nH]c3c(=O)n(C)cc(c23)-c2cc(CS(C)(=O)=O)ccc2N1c1ccc(F)cc1F)OC(C)=O` (stereo not drawn) [Example 133, 4-(4-(2,4-difluorophenyl)-10-methyl-7-((methylsulfonyl)methyl)-11-oxo-3,4,10,11-tetrahydro-1H-1,4,10-triazadibenzo[cd,f]azulen-3-yl)butane-1,2-diyl diacetate], the figures for the Ki on BRD4 (BDI_K57-E168) (setting [2]) and at BRD4 (BDII_E352-M457) (setting [2]) were 9.29 nM and 1.4 nM, respectively. The EC50 in test [1] stood at 204 nM.

On to `CCCNC(=O)N1Cc2c[nH]c3c(=O)n(C)cc(c23)-c2cc(CS(C)(=O)=O)ccc21` [Example 64, 10-methyl-7-((methylsulfonyl)methyl)-11-oxo-N-propyl-10,11-dihydro-1H-1,4,10-triazadibenzo[cd,f]azulene-4(3H)-carboxamide], for which the results for the Ki on BRD4 (BDI_K57-E168) (setting [2]) and on BRD4 (BDII_E352-M457) (setting [2]) were 2.69 nM and 2.85 nM, respectively. In test [1], the EC50 came to 84.6 nM.

For the compound `CNC(=O)CCC1c2c[nH]c3c(=O)n(C)cc(c23)-c2cc(CS(C)(=O)=O)ccc2N1c1ccc(F)cc1F` (stereo not drawn) [Example 118, 3-(4-(2,4-difluorophenyl)-10-methyl-7-((methylsulfonyl)methyl)-11-oxo-3,4,10,11-tetrahydro-1H-1,4,10-triazadibenzo[cd,f]azulen-3-yl)-N-methylpropanamide], the Ki turned out to be 12.6 nM at BRD4 (BDI_K57-E168) (setting [2]) and 1.38 nM at BRD4 (BDII_E352-M457) (setting [2]). Besides, the EC50 in test [1] was 174 nM.

Regarding `Cn1cc2c3c(c[nH]c3c1=O)CN(CC1CC1)c1c(F)cc(F)cc1-2` [Example 49, 4-(cyclopropylmethyl)-5,7-difluoro-10-methyl-3,4-dihydro-1H-1,4,10-triazadibenzo[cd,f]azulen-11(10H)-one], the Ki at BRD4 (BDI_K57-E168) (setting [2]) was found to be 1.99 nM; on BRD4 (BDII_E352-M457) (setting [2]), 2.21 nM. Also, the EC50 in test [1] is 8.63 nM.

Turning to `Cn1cc2c3c(c[nH]c3c1=O)CN(c1cccnc1)c1ccc(CS(C)(=O)=O)cc1-2` [Example 244, 10-methyl-7-((methylsulfonyl)methyl)-4-(pyridin-3-yl)-3,4-dihydro-1H-1,4,10-triazadibenzo[cd,f]azulen-11(10H)-one], the figures for the Ki at BRD4 (BDI_K57-E168) (setting [2]) and at BRD4 (BDII_E352-M457) (setting [2]) were 0.43 nM and 1.02 nM, respectively. In addition, the EC50 in test [1] came to 2.13 nM.

Consider `Cn1cc2c3c(c[nH]c3c1=O)CN(Cc1cccnn1)c1ccc(CS(C)(=O)=O)cc1-2` [Example 250, 10-methyl-7-((methylsulfonyl)methyl)-4-(pyridazin-3-ylmethyl)-3,4-dihydro-1H-1,4,10-triazadibenzo[cd,f]azulen-11(10H)-one], for which the figures for the Ki at BRD4 (BDI_K57-E168) (setting [2]) and at BRD4 (BDII_E352-M457) (setting [2]) were 8.8 nM and 22.5 nM, respectively. Moreover, the EC50 in test [1] was 845 nM.

`Cn1cc2c3c(c[nH]c3c1=O)CN(c1ccc(F)cc1)c1ncc(F)cc1-2` [Example 32, 7-fluoro-4-(4-fluorophenyl)-10-methyl-3,4-dihydro-1H-1,4,5,10-tetraazadibenzo[cd,f]azulen-11(10H)-one]: the values for the Ki at BRD4 (BDI_K57-E168) (setting [2]) and on BRD4 (BDII_E352-M457) (setting [2]) were 1.01 nM and 1.14 nM, respectively. For the same compound, in test [1], the EC50 came out at 1.38 nM.

As to `Cc1cnc2c(c1)-c1cn(C)c(=O)c3[nH]cc(c13)CN2c1ccc(F)cc1` [Example 11, 4-(4-fluorophenyl)-7,10-dimethyl-3,4-dihydro-1H-1,4,5,10-tetraazadibenzo[cd,f]azulen-11(10H)-one], the Ki was found to be 1.61 nM at BRD4 (BDI_K57-E168) (setting [2]) and 2.57 nM on BRD4 (BDII_E352-M457) (setting [2]). In addition, in test [1], the EC50 was 1.64 nM.

With `CN1CCN(Cc2[nH]c3c(=O)n(C)cc4c3c2CN(c2ccc(Cl)cc2)c2ccc(CS(C)(=O)=O)cc2-4)CC1` [Example 176, 4-(4-chlorophenyl)-10-methyl-2-((4-methylpiperazin-1-yl)methyl)-7-((methylsulfonyl)methyl)-3,4-dihydro-1H-1,4,10-triazadibenzo[cd,f]azulen-11(10H)-one], the Ki at BRD4 (BDI_K57-E168) (setting [2]) was determined as 1.01 nM; on BRD4 (BDII_E352-M457) (setting [2]), 3.55 nM. Also, the EC50 in test [1] is 14.2 nM.

For the compound `CCC1c2c[nH]c3c(=O)n(C)cc(c23)-c2cc(S(=O)(=O)CC)ccc2N1CC1CC1` (stereo not drawn) [Example 3, 4-(cyclopropylmethyl)-3-ethyl-7-(ethylsulfonyl)-10-methyl-3,4-dihydro-1H-1,4,10-triazadibenzo[cd,f]azulen-11(10H)-one], the figures for the Ki on BRD4 (BDI_K57-E168) (setting [3]) and on BRD4 (BDII_E352-M457) (setting [3]) were 46 nM and 8.91 nM, respectively. For the same compound, in test [1], the EC50 stood at 48.7 nM.
